pKi: −log10 of the molar value. “Also recorded” adds a separate entry of the source. Where a SMILES comes first, the peptide text is derived from it.
Assays:
Type in all cases: biochemical
[1] = target: T1, ROCK2 (Homo sapiens, UniProt O75116); assay: Inhibition of ROCK2 phosphorylation of S6K substrate peptide by inhibitor peptides; details: competitive; S6K peptide (KRRRLASLR) as substrate, 1.25 µg/mL ROCK2, 100 µM ATP, MOPS pH 7.2; Dixon plot and Lineweaver–Burk plot
T1 construct: purchased Carna Biosciences, Kobe, Japan
Description: The phosphorylatable amino acid (threonine) of five peptide substrates (R4, R22, R133, R134, and R135) was replaced with alanine. […] Ki values were obtained from the Dixon plot and Lineweaver–Burk plot. Inhibitor peptides were added into 25 µL of buffer (5 mM MOPS at pH 7.2, 2.5 mM beta-glycerophosphate, 1 mM EGTA, 4 mM MgCl2, 0.05 mM DTT, and 100 µM ATP) containing S6K substrate peptide and 1.25 µg/mL ROCK2.

[2] = target: T1, ROCK2; assay: Kinetic analysis of peptide substrate phosphorylation by ROCK2 (Lineweaver–Burk plot)
Description: The kinase activity of recombinant ROCK2 (Carna Biosciences, Kobe, Japan), ERK1 (Upstate, Millipore, Temecula, CA, USA), PKA (Promega, Madison, WI, USA), and PKCα (Sigma–Aldrich, St. Louis, MO, USA) for the peptide substrates was determined by measuring ^32P transfer from [γ-^32P]ATP into substrate peptides according to manufacturer recommendations. Phosphorylation reactions by ROCK2 were carried out in 25 µL of buffer (5 mM 3-(N-morpholino)propanesulfonic acid (MOPS) at pH 7.2, 2.5 mM beta-glycerophosphate, 1 mM ethylene glycol tetra-acetic acid (EGTA), 4 mM MgCl2, 0.05 mM dithiothreitol (DTT), and 100 µM adenosine triphosphate (ATP)) containing peptides and 1.25 µg/ml ROCK2. For PKCα, phosphorylation reactions were carried out in 25 µL of buffer (20 mM HEPES at pH 7.4, 10 mM MgCl2, 1 mM CaCl2, 100 µM ATP, 40 µg/mL phosphatidylserine, and 20 µg/mL diacylglycerol) containing peptides and 0.5 µg/mL PKCα. Phosphorylation reactions by PKA were carried out in 25 µL of buffer (50 mM HEPES at pH 7.4, 1 mM CaCl2, 10 mM MgCl2, 100 µM ATP) containing peptides and 1.6 µg/mL PKA. For ERK1, phosphorylation reactions were carried out in 25 µL of buffer (25 mM Tris-HCl at pH 7.5, 20 µM EGTA, 15 mM magnesium acetate, and 100 µM ATP) containing peptides and 0.5 µg/mL ERK1. For each experimental condition, values for control reactions lacking substrate peptides were subtracted as blanks. The assay mixture was incubated for 10 min at 25°C, and the reaction terminated by the addition of 5 µL of 30% trichloroacetic acid (TCA). The reaction mixture (24 µL) was spotted onto P-81 phosphocellulose membranes. The membranes were washed thrice with 5% TCA, dried with acetone, and the radioactivity of each membrane determined by liquid scintillation counting. Kinetic analyses of enzyme activity were determined using the Lineweaver–Burk plot. […]

[3] = target: T2, ERK1 (Homo sapiens, UniProt P27361); assay: Radiolabel assay using [γ-32P]ATP: phosphorylation of peptide substrates by ERK1; details: 0.5 µg/mL ERK1, 100 µM ATP, Tris-HCl pH 7.5, 10 min at 25°C; Fig. 3, in words
T2 construct: purchased Upstate, Millipore, Temecula, CA, USA
Description: (§1) The kinase activity of recombinant ROCK2 (Carna Biosciences, Kobe, Japan), ERK1 (Upstate, Millipore, Temecula, CA, USA), PKA (Promega, Madison, WI, USA), and PKCα (Sigma–Aldrich, St. Louis, MO, USA) for the peptide substrates was determined by measuring ^32P transfer from [γ-^32P]ATP into substrate peptides according to manufacturer recommendations. Phosphorylation reactions by ROCK2 were carried out in 25 µL of buffer (5 mM 3-(N-morpholino)propanesulfonic acid (MOPS) at pH 7.2, 2.5 mM beta-glycerophosphate, 1 mM ethylene glycol tetra-acetic acid (EGTA), 4 mM MgCl2, 0.05 mM dithiothreitol (DTT), and 100 µM adenosine triphosphate (ATP)) containing peptides and 1.25 µg/ml ROCK2. For PKCα, phosphorylation reactions were carried out in 25 µL of buffer (20 mM HEPES at pH 7.4, 10 mM MgCl2, 1 mM CaCl2, 100 µM ATP, 40 µg/mL phosphatidylserine, and 20 µg/mL diacylglycerol) containing peptides and 0.5 µg/mL PKCα. Phosphorylation reactions by PKA were carried out in 25 µL of buffer (50 mM HEPES at pH 7.4, 1 mM CaCl2, 10 mM MgCl2, 100 µM ATP) containing peptides and 1.6 µg/mL PKA. For ERK1, phosphorylation reactions were carried out in 25 µL of buffer (25 mM Tris-HCl at pH 7.5, 20 µM EGTA, 15 mM magnesium acetate, and 100 µM ATP) containing peptides and 0.5 µg/mL ERK1. For each experimental condition, values for control reactions lacking substrate peptides were subtracted as blanks. The assay mixture was incubated for 10 min at 25°C, and the reaction terminated by the addition of 5 µL of 30% trichloroacetic acid (TCA). The reaction mixture (24 µL) was spotted onto P-81 phosphocellulose membranes. The membranes were washed thrice with 5% TCA, dried with acetone, and the radioactivity of each membrane determined by liquid scintillation counting. Kinetic analyses of enzyme activity were determined using the Lineweaver–Burk plot.

[4] = target: T3, PKCα (Homo sapiens, UniProt P17252); assay: Radiolabel assay using [γ-32P]ATP: phosphorylation of peptide substrates by PKCα; details: Fig. 3, in words; for CPM for PKCα: 0.5 µg/mL PKCα, 100 µM ATP, HEPES pH 7.4, 10 min at 25°C
T3 construct: purchased Sigma–Aldrich, St. Louis, MO, USA
Description: as §1

[5] = target: T4, PKA (Bos taurus, UniProt P00517); assay: Radiolabel assay using [γ-32P]ATP: phosphorylation of peptide substrates by PKA; details: 1.6 µg/mL PKA, 100 µM ATP, HEPES pH 7.4, 10 min at 25°C; Fig. 3, in words
T4 construct: purchased Promega, Madison, WI, USA
Description: as §1

T1 sequence (O75116 1-553 limits assumed): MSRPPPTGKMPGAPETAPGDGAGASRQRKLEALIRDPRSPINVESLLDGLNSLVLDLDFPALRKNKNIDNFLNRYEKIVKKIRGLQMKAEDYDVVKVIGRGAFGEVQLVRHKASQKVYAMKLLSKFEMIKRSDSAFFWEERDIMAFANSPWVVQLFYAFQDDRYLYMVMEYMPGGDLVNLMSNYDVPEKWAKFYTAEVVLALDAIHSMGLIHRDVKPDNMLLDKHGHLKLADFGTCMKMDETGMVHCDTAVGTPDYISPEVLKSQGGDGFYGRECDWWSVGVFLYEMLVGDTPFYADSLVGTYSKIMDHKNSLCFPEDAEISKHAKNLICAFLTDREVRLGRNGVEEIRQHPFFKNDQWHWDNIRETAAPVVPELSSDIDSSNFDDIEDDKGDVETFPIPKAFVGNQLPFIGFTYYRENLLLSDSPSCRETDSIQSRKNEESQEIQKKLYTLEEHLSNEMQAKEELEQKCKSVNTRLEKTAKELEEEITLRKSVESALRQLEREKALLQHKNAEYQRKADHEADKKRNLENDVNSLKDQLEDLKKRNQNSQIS
T2 sequence (P27361 whole entry, species assumed): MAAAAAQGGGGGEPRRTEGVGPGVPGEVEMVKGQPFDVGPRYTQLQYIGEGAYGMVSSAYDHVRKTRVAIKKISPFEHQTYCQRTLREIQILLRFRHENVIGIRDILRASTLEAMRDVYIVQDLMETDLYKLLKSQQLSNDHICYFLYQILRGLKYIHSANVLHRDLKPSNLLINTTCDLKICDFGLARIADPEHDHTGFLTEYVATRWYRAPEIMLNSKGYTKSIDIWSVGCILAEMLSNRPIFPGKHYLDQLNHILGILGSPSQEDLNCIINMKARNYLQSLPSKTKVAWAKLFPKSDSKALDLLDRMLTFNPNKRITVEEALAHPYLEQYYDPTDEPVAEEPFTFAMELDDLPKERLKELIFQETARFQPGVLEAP

Molecule	pKi [1]	Km [2] [µM]	Vmax [2] [pmol/min/mg]	CPM for ROCK2 compared with ERK1 [3]	CPM for ROCK2 compared with PKCα [4]	CPM for ROCK2 compared with PKA [5]	CPM for PKCα [4]
CC[C@H](C)[C@H](NC(=O)[C@H](CCC(N)=O)NC(=O)[C@H](CCCNC(=N)N)NC(=O)[C@H](CC(C)C)NC(=O)[C@H](C)NC(=O)[C@H](CCCCN)NC(=O)[C@H](Cc1ccc(O)cc1)NC(=O)[C@H](CCCCN)NC(=O)[C@H](C)NC(=O)[C@@H](N)CCCNC(=N)N)C(=O)N[C@@H](CCCNC(=N)N)C(=O)O [R4 with alanine instead of threonine] (H-RAKYKALRQIR-OH)	4.06	–	–	–	–	–	–
CSCC[C@H](NC(=O)[C@H](Cc1c[nH]c2ccccc12)NC(=O)[C@H](Cc1ccc(O)cc1)NC(=O)[C@@H]1CCCN1C(=O)[C@H](CC(N)=O)NC(=O)CNC(=O)[C@@H](NC(=O)[C@@H](NC(=O)[C@H](C)NC(=O)[C@H](Cc1ccc(O)cc1)NC(=O)[C@H](CCCNC(=N)N)NC(=O)[C@H](CCCCN)NC(=O)[C@H](CCCCN)NC(=O)[C@H](CCCNC(=N)N)NC(=O)[C@H](C)NC(=O)[C@@H]1CCCN1C(=O)[C@@H](N)CCCCN)C(C)C)C(C)C)C(=O)O [R22 with alanine instead of threonine] (H-KPARKKRYAVVGNPYWM-OH)	4.94	–	–	–	–	–	–
CSCC[C@H](NC(=O)[C@H](Cc1c[nH]c2ccccc12)NC(=O)[C@H](Cc1ccc(O)cc1)NC(=O)[C@@H]1CCCN1C(=O)[C@H](CC(N)=O)NC(=O)CNC(=O)[C@@H](NC(=O)[C@@H](NC(=O)[C@H](C)NC(=O)[C@H](Cc1ccc(O)cc1)NC(=O)[C@H](CCCNC(=N)N)NC(=O)[C@H](CCCCN)NC(=O)[C@H](CCCCN)NC(=O)[C@H](CCCNC(=N)N)NC(=O)[C@H](CC(=O)O)NC(=O)[C@H](CO)NC(=O)[C@@H](N)CCCCN)C(C)C)C(C)C)C(=O)O [R133 with alanine instead of threonine] (H-KSDRKKRYAVVGNPYWM-OH; N-terminus and C-terminus assumed)	< 4.00	–	–	–	–	–	–
CSCC[C@H](NC(=O)[C@H](Cc1c[nH]c2ccccc12)NC(=O)[C@H](Cc1ccc(O)cc1)NC(=O)[C@@H]1CCCN1C(=O)[C@H](CC(N)=O)NC(=O)CNC(=O)[C@@H](NC(=O)[C@@H](NC(=O)[C@H](C)NC(=O)[C@H](Cc1ccc(O)cc1)NC(=O)[C@H](CCCNC(=N)N)NC(=O)[C@H](CCCCN)NC(=O)[C@H](CCCCN)NC(=O)[C@H](CCCNC(=N)N)NC(=O)[C@H](C)NC(=O)[C@H](CO)NC(=O)[C@@H](N)CCCCN)C(C)C)C(C)C)C(=O)O [R134 with alanine instead of threonine] (H-KSARKKRYAVVGNPYWM-OH)	4.53	–	–	–	–	–	–
CSCC[C@H](NC(=O)[C@H](Cc1c[nH]c2ccccc12)NC(=O)[C@H](Cc1ccc(O)cc1)NC(=O)[C@@H]1CCCN1C(=O)[C@H](CC(N)=O)NC(=O)CNC(=O)[C@@H](NC(=O)[C@@H](NC(=O)[C@H](C)NC(=O)[C@H](Cc1ccc(O)cc1)NC(=O)[C@H](CCCNC(=N)N)NC(=O)[C@H](CCCCN)NC(=O)[C@H](CCCCN)NC(=O)[C@H](CCCNC(=N)N)NC(=O)[C@H](CC(=O)O)NC(=O)[C@H](C)NC(=O)[C@@H](N)CCCCN)C(C)C)C(C)C)C(=O)O [R135 with alanine instead of threonine] (H-KADRKKRYAVVGNPYWM-OH; N-terminus and C-terminus assumed)	< 4.00	–	–	–	–	–	–
KADRKKRYTVVGNPYWM [R135, peptide substrate for ROCK2 …, origin LIMK2]	–	3.2	8.6	higher CPM levels for ROCK2 than the other enzymes	much higher CPM for ROCK2 than that of PKCα; also recorded: higher CPM levels for ROCK2 than the other enzymes	higher CPM levels for ROCK2 than the other enzymes	–
KPARKKRYTVVGNPYWM [R22, peptide substrate for ROCK2 …, origin LIM-kinase 1 (LIMK1)]	–	1.9	10.3	higher CPM levels for ROCK2 than the other enzymes	much higher CPM for ROCK2 than that of PKCα; also recorded: higher CPM levels for ROCK2 than the other enzymes	higher CPM levels for ROCK2 than the other enzymes	–
KRRRLASLR [S6K, synthetic peptide S6K (…) used as a control for ROCK2, reference compound]	–	3.1	23.1	–	–	–	–
KSARKKRYTVVGNPYWM [R134, peptide substrate for ROCK2 …, origin LIMK2]	–	3.3	14.9	–	–	–	high CPM
KSDRKKRYTVVGNPYWM [R133, peptide substrate for ROCK2 …, origin LIMK2]	–	3.6	10.0	higher CPM levels for ROCK2 than the other enzymes	much higher CPM for ROCK2 than that of PKCα; also recorded: higher CPM levels for ROCK2 than the other enzymes	higher CPM levels for ROCK2 than the other enzymes	–
RAKYKTLRQIR [R4, peptide substrate for ROCK2 …, origin ERM family (Ezrin/ Radixin/ Moesin)]	–	1.7	14.2	–	–	–	high CPM
